Laboratory results: the supplement of paper PMC10307832

How the values were obtained:
Assay in all cases: relative viability (nuclei count vs DMSO), 5 days (fraction); higher = more cells survive
Daporinad + Decitabine = compound: O=C(/C=C/c1cccnc1)NCCCCC1CCN(C(=O)c2ccccc2)CC1 [Daporinad] + Nc1ncn([C@H]2C[C@H](O)[C@@H](CO)O2)c(=O)n1 [Decitabine] (partner 2 µM)
Procedure, shortened: (§1)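 Lung cancer cell lines, seeded in 1536-well plates, were treated the following day by pin tool with a single drug or with five library-drug doses (not always all listed) in √10 steps on top of a fixed anchor-drug dose. Cells were fixed and nuclei stained in one step after 5 days, and nuclei were counted. Relative viability is the nuclei count for treated wells divided by that for vehicle wells, reported as medians of duplicate plates.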

Daporinad + Alpelisib = compound: O=C(/C=C/c1cccnc1)NCCCCC1CCN(C(=O)c2ccccc2)CC1 [Daporinad] + Cc1nc(NC(=O)N2CCC[C@H]2C(N)=O)sc1-c1ccnc(C(C)(C)C(F)(F)F)c1 [Alpelisib] (partner 2 µM)
Procedure, shortened: as §1

Daporinad + Luminespib = compound: O=C(/C=C/c1cccnc1)NCCCCC1CCN(C(=O)c2ccccc2)CC1 [Daporinad] + CCNC(=O)c1noc(-c2cc(C(C)C)c(O)cc2O)c1-c1ccc(CN2CCOCC2)cc1 [Luminespib] (partner 0.01 µM)
Procedure, shortened: as §1

R406 + Dasatinib = compound: COc1cc(Nc2ncc(F)c(Nc3ccc4c(n3)NC(=O)C(C)(C)O4)n2)cc(OC)c1OC [R406] + Cc1nc(Nc2ncc(C(=O)Nc3c(C)cccc3Cl)s2)cc(N2CCN(CCO)CC2)n1 [Dasatinib] (partner 0.075 µM)
Procedure, shortened: as §1

Cell Line: UMC-11
- relative viability (Daporinad + Decitabine; first compound 0.0005 µM): 0.558
- relative viability (Daporinad + Decitabine; first compound 0.001581 µM): 0.813
- relative viability (Daporinad + Decitabine; first compound 0.005 µM): 0.625
- relative viability (Daporinad + Decitabine; first compound 0.01581 µM): 0.54
- relative viability (Daporinad + Alpelisib; first compound 0.0005 µM): 0.915
- relative viability (Daporinad + Alpelisib; first compound 0.001581 µM): 0.979
- relative viability (Daporinad + Alpelisib; first compound 0.005 µM): 1.07
- relative viability (Daporinad + Alpelisib; first compound 0.01581 µM): 1.1
- relative viability (Daporinad + Luminespib; first compound 0.0005 µM): 1.09
- relative viability (Daporinad + Luminespib; first compound 0.001581 µM): 1.04
- relative viability (Daporinad + Luminespib; first compound 0.005 µM): 1.26
- relative viability (Daporinad + Luminespib; first compound 0.01581 µM): 1.16
- relative viability (R406 + Dasatinib; first compound 0.08 µM): 0.466
- relative viability (R406 + Dasatinib; first compound 0.253 µM): 0.572
- relative viability (R406 + Dasatinib; first compound 0.8 µM): 0.519
- relative viability (R406 + Dasatinib; first compound 2.53 µM): 0.459
- relative viability (R406 + Dasatinib; first compound 8 µM): 0.342
